The results in this text go back to patent publication US7371889B2, “Chemical entities with multiple modes of anti-inflammatory action” (Sami Labs Limited, priority 2002, dated 2008).

SMILES strings stand for the structures.

One test concerns T cells. The experiment in a line: In vitro proliferation of T cells from draining lymph nodes after concanavalin A stimulation, tritiated thymidine incorporation. It is filed as cell-based. As to conditions: T cells isolated day 22 from treated rats, thymidine uptake. On the procedure:
Hindpaw swelling (days 3, 7, 11, 14, 17, 21) and nociception (days 15 and 21) were measured. On day 22 rats were sacrificed, draining lymph nodes were removed and T cells isolated. In vitro proliferation of T cells following stimulation with concanavalin A (0.5-5 mcg/mL) was measured using a tritiated thymidine incorporation assay.
IL-2 receptor expression on T cells was measured by FACS analysis. […] T cells were isolated and characterized by FACS analysis.
(Dividing cells build labelled thymidine or BrdU into new DNA.)

The test system of test [1] is Freund's adjuvant (FA) arthritis. The experiment in a line: Freund's adjuvant (FA) arthritis in rats, nociception. It is filed as in vivo. The settings on record: oral administration, dose giving the same extent of inhibition. On the procedure: Freund's adjuvant (FA) arthritis was induced in rats by a single intraplantar injection into the right hindpaw of 100 microl of Mycobacterium butirricum (6 mg/mL). […] Hindpaw swelling (days 3, 7, 11, 14, 17, 21) and nociception (days 15 and 21) were measured. On day 22 rats were sacrificed, draining lymph nodes were removed and T cells isolated. In vitro proliferation of T cells following stimulation with concanavalin A (0.5-5 mcg/mL) was measured using a tritiated thymidine incorporation assay.

With `CC(=O)O[C@@H]1CC[C@@]2(C)[C@@H](CC[C@]3(C)[C@@H]2C(=O)C=C2[C@@H]4[C@@H](C)[C@H](C)CC[C@]4(C)CC[C@]23C)[C@@]1(C)C(=O)O` [AKBBA, 3-acetyl-11-keto-β-boswellic acid, reference compound], the “order of activity, inhibition of T-cell proliferation” value in the test on T cells is “SA-041>SA-040>N>1>AKBBA”.

Regarding `CC(=O)OC1CCC2(C)C(CCC3(C)C2C(=O)C=C2C4C(C)C(C)CCC4(C)CCC23C)C1(C)C(=O)OCCl` (stereo not drawn) [Example 1, 3-Acetyl-11-keto-β-boswellic acid chloromethyl ester], in the test on T cells, the “order of activity, inhibition of T-cell proliferation” value is listed as “SA-041>SA-040>N>1>AKBBA”.

In the case of `COc1ccc2cc([C@H](C)C(=O)O)ccc2c1` [N, Naproxen, reference compound], in the test with T cells, the “order of activity, inhibition of T-cell proliferation” value is given as “SA-041>SA-040>N>1>AKBBA”.

For the molecule `CC(=O)O[C@@H]1CC[C@@]2(C)[C@@H](CC[C@]3(C)[C@@H]2C(=O)C=C2[C@@H]4[C@@H](C)[C@H](C)CC[C@]4(C)CC[C@@]23C)[C@@]1(C)C(=O)OCOC(=O)C(C)c1ccc(CC(C)C)cc1` (some centres unmarked) [SA-040, AKBBA-Ibuprofen conjugate], the “order of activity, inhibition of T-cell proliferation” value in the test with T cells was “SA-041>SA-040>N>1>AKBBA”. Also, the “dose at which anti-nociceptive” value in test [1] was 5.9 mg/kg.
